Here are results for 15 compounds from PubChem BioAssay (NCI).

Some test systems named below: TK-10 renal; HL-60(TB) leukemia; UACC-62 melanoma; IGROV1 ovarian; NCI-H226 lung; RXF 393 renal; OVCAR-8 ovarian; K-562 leukemia; HT29 colon; RPMI-8226 leukemia.
Common to all, as to test: growth of human tumour cells (NCI), 48 h

Each structure is given as a SMILES string. Several values for one entry are separate records, joined by “and”; a condition that tells them apart may be missing. Identical values can stand only once.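 Test compounds were applied to cells in 96-well plates for 48 hours at 5 doses. GI50 marks 50% less growth. Definition used: TGI = concentration required for complete inhibition of growth.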

With `Nc1ccn(C2OC(COP(=O)(O)O)C(O)C2O)c(=O)n1` (configuration not stated), the TGI with TK-10 renal was over 100 µM; in the experiment with HL-60(TB) leukemia, 6.48 µM; in the experiment on UACC-62 melanoma, over 71.3 µM; in the experiment on IGROV1 ovarian, over 100 µM; with NCI-H226 lung, over 100 µM; with RXF 393 renal, over 94.7 µM. Besides, the TGI with OVCAR-8 ovarian, with K-562 leukemia, with HT29 colon and with RPMI-8226 leukemia was over 100 µM each time.

On to `C[C@]12CC[C@@H]3c4ccc(OCC(=O)O)cc4CC[C@H]3[C@@H]1CCC2=O`, for which the TGI was over 100 µM in the experiment on TK-10 renal; 0.317 µM with HL-60(TB) leukemia; over 100 µM with UACC-62 melanoma; over 100 µM in the experiment on IGROV1 ovarian; over 100 µM in the experiment on NCI-H226 lung; over 100 µM with RXF 393 renal. In addition, the TGI in the experiment on OVCAR-8 ovarian, in the experiment on HT29 colon and in the experiment with RPMI-8226 leukemia was over 100 µM throughout.

For the compound `Cn1cc(C(=O)/C(Cl)=C(\Cl)C(=O)O)c2ccccc21`, the TGI with TK-10 renal, in the experiment with HL-60(TB) leukemia, in the experiment with UACC-62 melanoma, in the experiment on IGROV1 ovarian, with NCI-H226 lung and in the experiment with RXF 393 renal was over 100 µM each time. In addition, the TGI in the experiment with OVCAR-8 ovarian, in the experiment on K-562 leukemia, in the experiment with HT29 colon and in the experiment on RPMI-8226 leukemia was over 100 µM each time.

On to `C/C=C/CP(=O)(c1ccccc1)c1ccccc1`, for which the TGI in the experiment on TK-10 renal, in the experiment on HL-60(TB) leukemia, with UACC-62 melanoma, with IGROV1 ovarian, in the experiment with NCI-H226 lung and with RXF 393 renal was over 100 µM throughout. Further, the TGI in the experiment with OVCAR-8 ovarian, in the experiment on K-562 leukemia, in the experiment with HT29 colon and with RPMI-8226 leukemia was over 100 µM each time.

Take `O=C(CC1(O)C(=O)Nc2ccccc21)c1ccc(O)cc1O` (configuration not stated): the TGI in the experiment with TK-10 renal, in the experiment on HL-60(TB) leukemia, with UACC-62 melanoma, with IGROV1 ovarian, in the experiment with NCI-H226 lung and with RXF 393 renal was over 100 µM in each case. For the same compound, the TGI in the experiment on OVCAR-8 ovarian, in the experiment with K-562 leukemia, in the experiment on HT29 colon and with RPMI-8226 leukemia was over 100 µM throughout.

Take `Nc1nc(F)nc2c1ncn2C1OC(COP(=O)(O)O)C(O)C1O` (configuration not stated): the TGI in the experiment on TK-10 renal turned out to be 773 µM; in the experiment with HL-60(TB) leukemia, 71.9 µM; with UACC-62 melanoma, 247 µM; with IGROV1 ovarian it was 952 µM; in the experiment with NCI-H226 lung it was 599 µM; with RXF 393 renal, 413 µM. Besides, the TGI in the experiment with OVCAR-8 ovarian was 196 µM; in the experiment on K-562 leukemia, 1070 µM; in the experiment with HT29 colon, over 1250 µM; with RPMI-8226 leukemia, 855 µM.

`O[C@H]1[C@H]2[C@H](O)CCCN2C[C@H]1O`: the TGI in the experiment on TK-10 renal, with HL-60(TB) leukemia, in the experiment on UACC-62 melanoma, in the experiment with IGROV1 ovarian, in the experiment with NCI-H226 lung and in the experiment with RXF 393 renal was over 100 µM each time. Besides, the TGI in the experiment with OVCAR-8 ovarian, with HT29 colon and with RPMI-8226 leukemia was over 100 µM throughout.

`Cc1cc(Nc2nc(N3CCOCC3)nc3ccccc23)n[nH]1`: the GI50 is 1.52 µM with TK-10 renal; 5.5 µM with HL-60(TB) leukemia; 2.12 µM in the experiment with IGROV1 ovarian; 4.13 µM in the experiment on NCI-H226 lung; 1.35 µM in the experiment with RXF 393 renal; 21.1 µM with OVCAR-8 ovarian. For the same compound, the GI50 is 5.14 µM in the experiment with K-562 leukemia, 5.09 µM in the experiment with HT29 colon and 22.5 µM in the experiment on RPMI-8226 leukemia. Besides, the TGI in the experiment on TK-10 renal is 37.3 µM; in the experiment on HL-60(TB) leukemia it was 50.1 µM; in the experiment with IGROV1 ovarian, 27.1 µM; in the experiment with NCI-H226 lung, 45.2 µM; in the experiment with RXF 393 renal, 6.17 µM; in the experiment on OVCAR-8 ovarian, over 100 µM. Besides, the TGI in the experiment on K-562 leukemia was over 100 µM; in the experiment on HT29 colon, 52.8 µM; with RPMI-8226 leukemia, over 100 µM.

`O=C1NC(=O)[C@H]2C3C=CC([C@@H]12)[C@@H]1C(=O)NC(=O)[C@H]31`: the TGI with TK-10 renal, with HL-60(TB) leukemia, in the experiment with UACC-62 melanoma, in the experiment with IGROV1 ovarian, with NCI-H226 lung and in the experiment on RXF 393 renal was over 100 µM in each case. Further, the TGI in the experiment on OVCAR-8 ovarian, in the experiment with K-562 leukemia and in the experiment with RPMI-8226 leukemia was over 100 µM each time.

As for `O=C(/C=C/c1ccc2c(c1)OCO2)c1ccccc1`, the GI50 with HL-60(TB) leukemia is 17.8 µM; with UACC-62 melanoma, 16.3 µM; in the experiment on IGROV1 ovarian, 4.43 µM; in the experiment on NCI-H226 lung, 23.4 µM; in the experiment on RXF 393 renal it was 14.3 µM; with OVCAR-8 ovarian, 17.4 µM. Further, the results for the GI50 in the experiment on K-562 leukemia and with RPMI-8226 leukemia were 4.42 µM and 4.84 µM, respectively. Besides, the TGI in the experiment on HL-60(TB) leukemia was 61.6 µM; in the experiment on UACC-62 melanoma it was 33.7 µM; with IGROV1 ovarian it was 27.7 µM; in the experiment on NCI-H226 lung, 78.5 µM; with RXF 393 renal, 28.7 µM; with OVCAR-8 ovarian, 58.5 µM. Also, the TGI in the experiment with K-562 leukemia and with RPMI-8226 leukemia was over 100 µM each time.

In the case of `O=S(=O)(NCCNc1cc(-c2cn(-c3ccccc3)nc2-c2cccc(O)c2)ccn1)c1ccc(F)cc1`, the GI50 in the experiment on TK-10 renal was 3.58 µM; with HL-60(TB) leukemia, 2.43 µM; with UACC-62 melanoma it was 1.99 µM; in the experiment with IGROV1 ovarian, 3.21 µM; with NCI-H226 lung it was 3.06 µM; in the experiment on RXF 393 renal it was 2.09 µM. Also, the results for the GI50 in the experiment on OVCAR-8 ovarian, with HT29 colon and in the experiment on RPMI-8226 leukemia were 3.07 µM, 1.99 µM and 2.23 µM, respectively. Besides, the TGI in the experiment with TK-10 renal turned out to be 9.84 µM; in the experiment with HL-60(TB) leukemia it was 6.22 µM; with UACC-62 melanoma, 4.73 µM; in the experiment with IGROV1 ovarian, 19.8 µM; with NCI-H226 lung, 13.7 µM; in the experiment on RXF 393 renal, 7.54 µM. In addition, the TGI in the experiment on OVCAR-8 ovarian is 14.1 µM; in the experiment on HT29 colon, 4.79 µM; with RPMI-8226 leukemia it was 6.12 µM.

As to `COc1ccc(C2c3cc4c(cc3OC(O)(CO)C2C(=O)O)OCO4)c(OC)c1OC` (configuration not stated) (tested in a mixture with another compound), the TGI in the experiment with TK-10 renal, in the experiment on HL-60(TB) leukemia, with UACC-62 melanoma, with IGROV1 ovarian, in the experiment on RXF 393 renal and with OVCAR-8 ovarian was over 100 µM throughout. In addition, the TGI in the experiment on K-562 leukemia, in the experiment on HT29 colon and in the experiment on RPMI-8226 leukemia was over 100 µM in each case.

For `Cc1cc2c(cc1C)[n+](=O)c(C(=O)c1cccs1)c(C(F)(F)F)n2[O-]`, the GI50 was 1.96 µM and 2.54 µM in the experiment on HL-60(TB) leukemia; 3.02 µM and 6.56 µM with UACC-62 melanoma; 0.683 µM with IGROV1 ovarian; 4.06 µM in the experiment with NCI-H226 lung; 19.7 µM and 9.21 µM with RXF 393 renal; 1.67 µM and 2.02 µM in the experiment on OVCAR-8 ovarian. Also, the GI50 is 1.43 µM and 2.81 µM with K-562 leukemia; 9.97 µM in the experiment with HT29 colon; 1.04 µM and 2.84 µM in the experiment on RPMI-8226 leukemia. Moreover, the TGI in the experiment with HL-60(TB) leukemia is 11 µM and 28.8 µM; in the experiment with UACC-62 melanoma, 12.8 µM and 21.7 µM; in the experiment on IGROV1 ovarian it was 5.31 µM; in the experiment with NCI-H226 lung, 50 µM; in the experiment on RXF 393 renal, 50 µM and 29.3 µM; with OVCAR-8 ovarian it was 50 µM and 6.61 µM. The TGI with K-562 leukemia is 50 µM and 16.3 µM; in the experiment with HT29 colon, 50 µM; in the experiment with RPMI-8226 leukemia it was 8.01 µM and 30.6 µM.

`CCCN1C(=O)/C(=C/c2ccc(O)cc2)SC1=Nc1ccccc1`: the GI50 in the experiment on TK-10 renal was 18.6 µM; in the experiment with HL-60(TB) leukemia, over 100 µM; in the experiment on UACC-62 melanoma, 21 µM; in the experiment on IGROV1 ovarian, 38 µM; in the experiment with NCI-H226 lung it was 30.3 µM; in the experiment with RXF 393 renal, 23.2 µM. For the same compound, the GI50 with OVCAR-8 ovarian was 25.8 µM; in the experiment on K-562 leukemia it was 92.1 µM; in the experiment on HT29 colon, 33.5 µM. The TGI in the experiment with TK-10 renal is 38.5 µM; in the experiment with HL-60(TB) leukemia, over 100 µM; with UACC-62 melanoma it was 45.3 µM; in the experiment on IGROV1 ovarian, over 100 µM; in the experiment with NCI-H226 lung it was 54.1 µM; with RXF 393 renal, 51.4 µM. The TGI in the experiment on OVCAR-8 ovarian was 68.8 µM; with K-562 leukemia, over 100 µM; in the experiment with HT29 colon, 86.7 µM.

For the compound `N#C/C(=C\c1ccc(Cl)cc1)n1nnc2cc(F)c(F)cc21`, the GI50 in the experiment with HL-60(TB) leukemia is 2.36 µM; in the experiment on UACC-62 melanoma, 1.8 µM; in the experiment on IGROV1 ovarian, 1.97 µM; with NCI-H226 lung, 2.02 µM; with RXF 393 renal it was 1.46 µM; in the experiment on OVCAR-8 ovarian, 3.27 µM. Also, the GI50 with K-562 leukemia is 2.19 µM; in the experiment on HT29 colon it was 2.5 µM; with RPMI-8226 leukemia, 1.39 µM. In addition, the TGI was 6.82 µM in the experiment on HL-60(TB) leukemia; 3.96 µM with UACC-62 melanoma; 4.46 µM in the experiment with IGROV1 ovarian; 4.54 µM in the experiment with NCI-H226 lung; 3.11 µM in the experiment on RXF 393 renal; over 100 µM in the experiment on OVCAR-8 ovarian. The results for the TGI in the experiment with K-562 leukemia, with HT29 colon and with RPMI-8226 leukemia were over 100 µM, 5.61 µM and 5.29 µM, respectively.
